Measured values reported in ChEMBL document CHEMBL1201862, “PubChem BioAssay data set” (2004).
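Cells were grown in 96-well plates and exposed to each compound for 48 hours at five concentrations; endpoints were interpolated linearly between bracketing concentrations, or set to the highest concentration if not reached. Abbreviation: GI50, concentration required for 50% inhibition of growth.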 Active and inactive are the calls of the source. Rule as the data show it: active = GI50 up to about 1.1 µM and inactive = higher.

How the values were obtained:
Assay in all cases: DTP human tumour cell line panel, 48 h
[1] = tested on: UACC-62
[2] = tested on: NCI-H522
[3] = tested on: SK-OV-3
[4] = tested on: SNB-19
[5] = tested on: OVCAR-5
[6] = tested on: SN12C
[7] = tested on: CAKI-1
[8] = tested on: UACC-257
[9] = tested on: HL-60
[10] = tested on: SNB-75
[11] = tested on: MCF7
[12] = tested on: RPMI-8226
[13] = tested on: NCI-H226
[14] = tested on: HOP-92
[15] = tested on: NCI/ADR-RES
[16] = tested on: NCI-H460
[17] = tested on: SF-539
[18] = tested on: MDA-MB-435
[19] = tested on: ACHN
[20] = tested on: T47D

Row | Compound | GI50 [1] | GI50 [2] | GI50 [3] | GI50 [4] | GI50 [5] | GI50 [6] | GI50 [7] | GI50 [8] | GI50 [9] | GI50 [10] | GI50 [11] | GI50 [12] | GI50 [13] | GI50 [14] | GI50 [15] | GI50 [16] | GI50 [17] | GI50 [18] | GI50 [19] | GI50 [20]
1 | Cc1cccc2c(=O)c3c(O)cc4c(c3n(C)c12)C=CC(C)(C)O4 | > 100 µM (inactive) | > 100 µM (inactive) | > 100 µM (inactive) | > 100 µM (inactive) | 59.3 µM (inactive) | > 100 µM (inactive) | > 100 µM (inactive) | 60.1 µM (inactive) | 45.7 µM (inactive) | 97.5 µM (inactive) | 32.7 µM (inactive) | 9.02 µM (inactive) | 29.5 µM (inactive) | 21.6 µM (inactive) | 31.8 µM (inactive) | 31.2 µM (inactive) | 87.5 µM (inactive) | 70.5 µM (inactive) | > 100 µM (inactive) | 
2 | O=C(CC(C(=O)O)N1CCOCC1)c1ccccc1 (stereo unspecified) | 14.6 µM (inactive) | > 100 µM (inactive) | 37 µM (inactive) | 21 µM (inactive) | 22.3 µM (inactive) | 17.8 µM (inactive) |  | 13.4 µM (inactive) | 20.6 µM (inactive) | 31 µM (inactive) | 15.7 µM (inactive) | 12.7 µM (inactive) | > 100 µM (inactive) | 20.4 µM (inactive) | > 100 µM (inactive) | 19.5 µM (inactive) | 22.6 µM (inactive) |  | 16 µM (inactive) | > 100 µM (inactive)
3 | CN(CCCCN)c1ccc2c(=O)[nH][nH]c(=O)c2c1 | > 41.8 µM (inactive) | > 100 µM (inactive) | > 100 µM (inactive) | > 10 µM (inactive) | > 100 µM (inactive) | > 100 µM (inactive) | > 100 µM (inactive) | > 100 µM (inactive) | > 100 µM (inactive) | 88.3 µM (inactive) |  | > 100 µM (inactive) | > 100 µM (inactive) | > 100 µM (inactive) |  | > 100 µM (inactive) | > 100 µM (inactive) |  | > 100 µM (inactive) | 
4 | CNC(=S)N/N=C/c1ccc([N+](=O)[O-])s1 | > 10 µM (inactive) | > 10 µM (inactive) | > 10 µM (inactive) | > 10 µM (inactive) | > 10 µM (inactive) | > 10 µM (inactive) | > 10 µM (inactive) | > 10 µM (inactive) | 6.44 µM (inactive) | > 10 µM (inactive) |  | > 10 µM (inactive) | > 10 µM (inactive) | > 10 µM (inactive) | > 10 µM (inactive) | 6.67 µM (inactive) | > 10 µM (inactive) | > 10 µM (inactive) | > 10 µM (inactive) | > 10 µM (inactive)
5 | O=C1CCCCCCCCCCC1CN1CCOCC1 (stereo unspecified) | > 100 µM (inactive) | > 100 µM (inactive) | > 100 µM (inactive) | > 100 µM (inactive) | > 100 µM (inactive) | > 100 µM (inactive) |  | > 100 µM (inactive) | > 100 µM (inactive) | 2.45 µM (inactive) | > 100 µM (inactive) | > 100 µM (inactive) | > 100 µM (inactive) | > 100 µM (inactive) |  |  | > 100 µM (inactive) | > 100 µM (inactive) | > 100 µM (inactive) | > 100 µM (inactive)
6 | COc1cc(OC)c(NC2=NCCO2)cc1Cl | 60.7 µM (inactive) | 32.8 µM (inactive) |  | > 100 µM (inactive) | 53.8 µM (inactive) | 44.4 µM (inactive) |  | 31 µM (inactive) | 43.3 µM (inactive) | 35.6 µM (inactive) | 49.1 µM (inactive) | 46.8 µM (inactive) | 25.7 µM (inactive) |  | 32.4 µM (inactive) | 21.2 µM (inactive) | 25.5 µM (inactive) | 20.1 µM (inactive) | 64.7 µM (inactive) | 54.5 µM (inactive)
7 | CCOC(=O)/C(C(=O)c1ccc[nH]1)=C1/CCCN1C | > 100 µM (inactive) |  | > 100 µM (inactive) | > 100 µM (inactive) | > 100 µM (inactive) | > 100 µM (inactive) | > 100 µM (inactive) | > 100 µM (inactive) | > 100 µM (inactive) | > 100 µM (inactive) | > 100 µM (inactive) | > 100 µM (inactive) | > 100 µM (inactive) |  | > 100 µM (inactive) | > 100 µM (inactive) | > 100 µM (inactive) | > 100 µM (inactive) | > 100 µM (inactive) | > 100 µM (inactive)
8 | NNC(=O)c1ccc(-n2nnc(C(=O)NN)c2C(=O)NN)cc1 |  |  |  | > 100 µM (inactive) | > 100 µM (inactive) | > 100 µM (inactive) | > 100 µM (inactive) | > 100 µM (inactive) | > 100 µM (inactive) |  | > 100 µM (inactive) | > 100 µM (inactive) |  | > 100 µM (inactive) | > 100 µM (inactive) | > 100 µM (inactive) |  | > 100 µM (inactive) | > 100 µM (inactive) | 
9 | CCOC(=O)C(=Cc1ccccc1Br)C(=O)OCC | 1.72 µM (inactive) | 1.64 µM (inactive) |  | 2.53 µM (inactive) | 6.5 µM (inactive) | 2.84 µM (inactive) | 2.53 µM (inactive) | 3.58 µM (inactive) | 0.585 µM (active) | 5.58 µM (inactive) | 1.55 µM (inactive) | 2.23 µM (inactive) | 3.51 µM (inactive) | 3.4 µM (inactive) | 4.65 µM (inactive) | 3.26 µM (inactive) | 2.34 µM (inactive) | 1.69 µM (inactive) | 2.59 µM (inactive) | 
10 | COc1ccc(Cn2nc(OCc3ccccn3)c3cc([N+](=O)[O-])ccc32)cc1 | 35.7 µM (inactive) | > 100 µM (inactive) | 63.7 µM (inactive) | 85.9 µM (inactive) | > 100 µM (inactive) | > 100 µM (inactive) | > 100 µM (inactive) | > 100 µM (inactive) | > 100 µM (inactive) |  | > 100 µM (inactive) | > 100 µM (inactive) | > 100 µM (inactive) |  | > 100 µM (inactive) | > 100 µM (inactive) | 33.3 µM (inactive) | > 100 µM (inactive) | > 100 µM (inactive) | > 100 µM (inactive)
11 | C[C@@H](C[C@@H](O)[C@H](O)C(C)(C)O)[C@H]1CC=C2[C@]3(C)[C@H](O)C[C@H]4C(C)(C)[C@H](O)CC[C@]4(C)[C@H]3CC[C@@]21C |  | 14 µM (inactive) |  | 16 µM (inactive) | 19.2 µM (inactive) | 15.7 µM (inactive) | 16.4 µM (inactive) | 16.1 µM (inactive) | 14.2 µM (inactive) | 17.6 µM (inactive) | 17.2 µM (inactive) | 13.9 µM (inactive) | 20.7 µM (inactive) | 13.9 µM (inactive) | 13.8 µM (inactive) | 15.8 µM (inactive) | 18.1 µM (inactive) | 16.4 µM (inactive) | 14.3 µM (inactive) | 
12 | CN(C)c1ccc(/C=N/N=C2\C(=O)Nc3c(Cl)cc(Cl)cc32)cc1 | 42.2 µM (inactive) |  | > 100 µM (inactive) | > 100 µM (inactive) | > 100 µM (inactive) | > 100 µM (inactive) | 55.8 µM (inactive) | > 100 µM (inactive) | 28.6 µM (inactive) | 22.8 µM (inactive) | 46.2 µM (inactive) |  | > 100 µM (inactive) | 92.5 µM (inactive) | 20.2 µM (inactive) | 41 µM (inactive) | 39.5 µM (inactive) | 22.5 µM (inactive) | 97.9 µM (inactive) | 
13 | CC(C)(c1ccccc1)c1ccc(OC#N)cc1 | > 95.1 µM (inactive) | 15.2 µM (inactive) | 98.6 µM (inactive) | > 78 µM (inactive) | > 100 µM (inactive) | 60.5 µM (inactive) | > 95.5 µM (inactive) | > 100 µM (inactive) | 36.4 µM (inactive) | 15.2 µM (inactive) |  | 34.1 µM (inactive) | 51.5 µM (inactive) | 37.3 µM (inactive) |  | 38.5 µM (inactive) | 38.1 µM (inactive) |  | 68.4 µM (inactive) | 
14 | NNC(=O)Cn1ccnn1 |  | > 100 µM (inactive) |  | > 100 µM (inactive) | > 100 µM (inactive) | > 100 µM (inactive) | > 100 µM (inactive) | > 100 µM (inactive) | > 100 µM (inactive) | > 100 µM (inactive) | > 100 µM (inactive) | > 100 µM (inactive) |  | > 100 µM (inactive) | > 100 µM (inactive) | > 100 µM (inactive) |  | > 100 µM (inactive) | > 100 µM (inactive) | 
15 | O=C1Cc2c([nH]c3c(Cl)cccc23)-c2ccccc2N1 | > 100 µM (inactive) | > 100 µM (inactive) | > 100 µM (inactive) | > 100 µM (inactive) | > 100 µM (inactive) | > 100 µM (inactive) |  |  | > 100 µM (inactive) | > 100 µM (inactive) | > 100 µM (inactive) | > 100 µM (inactive) | > 100 µM (inactive) | 95.7 µM (inactive) |  | > 100 µM (inactive) | > 100 µM (inactive) | > 100 µM (inactive) | > 100 µM (inactive) | > 100 µM (inactive)
16 | COc1cc2c[n+](C)c3c4cc(OC)c(OC)cc4c(OCCCCCCCCOc4cc5c6cc(OC)c(OC)cc6c[n+](C)c5c5cc(OC)c(OC)cc45)cc3c2cc1OC | > 100 µM (inactive) | > 100 µM (inactive) | > 100 µM (inactive) | 17.4 µM (inactive) | > 100 µM (inactive) | > 100 µM (inactive) | > 100 µM (inactive) | > 100 µM (inactive) | 2.23 µM (inactive) | 58.6 µM (inactive) |  | 22.3 µM (inactive) | > 100 µM (inactive) | > 100 µM (inactive) |  | > 100 µM (inactive) | 51.4 µM (inactive) |  | > 100 µM (inactive) | 
